Reference: patent publication US8962641B2, “Pyrimidine-substituted pyrrolidine derivatives, pharmaceutical compositions and uses thereof” (Boehringer Ingelheim International GmbH, priority 2013, dated 2015)

target: human ACC2 (Homo sapiens (Human), UniProt O00763); test: ACC2 assay (spectrophotometric 384 well assay, NADH-linked kinetic method); type: biochemical; details: hACC2 construct lacking 128 N-terminal amino acids; coupled lactate dehydrogenase/pyruvate kinase reaction, 340 nm, 25° C.
Outline: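 Baculovirus/insect-cell human ACC2, anion-exchange purified; ADP formation coupled to pyruvate kinase/lactate dehydrogenase, NADH loss followed at 340 nm, 25° C, 15 min. Final 200 μM NADH and acetyl-CoA, 500 uM ATP; vehicle and no-acetyl-CoA wells set 100% and 0%.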

Chain of human ACC2 (O00763 129-2458): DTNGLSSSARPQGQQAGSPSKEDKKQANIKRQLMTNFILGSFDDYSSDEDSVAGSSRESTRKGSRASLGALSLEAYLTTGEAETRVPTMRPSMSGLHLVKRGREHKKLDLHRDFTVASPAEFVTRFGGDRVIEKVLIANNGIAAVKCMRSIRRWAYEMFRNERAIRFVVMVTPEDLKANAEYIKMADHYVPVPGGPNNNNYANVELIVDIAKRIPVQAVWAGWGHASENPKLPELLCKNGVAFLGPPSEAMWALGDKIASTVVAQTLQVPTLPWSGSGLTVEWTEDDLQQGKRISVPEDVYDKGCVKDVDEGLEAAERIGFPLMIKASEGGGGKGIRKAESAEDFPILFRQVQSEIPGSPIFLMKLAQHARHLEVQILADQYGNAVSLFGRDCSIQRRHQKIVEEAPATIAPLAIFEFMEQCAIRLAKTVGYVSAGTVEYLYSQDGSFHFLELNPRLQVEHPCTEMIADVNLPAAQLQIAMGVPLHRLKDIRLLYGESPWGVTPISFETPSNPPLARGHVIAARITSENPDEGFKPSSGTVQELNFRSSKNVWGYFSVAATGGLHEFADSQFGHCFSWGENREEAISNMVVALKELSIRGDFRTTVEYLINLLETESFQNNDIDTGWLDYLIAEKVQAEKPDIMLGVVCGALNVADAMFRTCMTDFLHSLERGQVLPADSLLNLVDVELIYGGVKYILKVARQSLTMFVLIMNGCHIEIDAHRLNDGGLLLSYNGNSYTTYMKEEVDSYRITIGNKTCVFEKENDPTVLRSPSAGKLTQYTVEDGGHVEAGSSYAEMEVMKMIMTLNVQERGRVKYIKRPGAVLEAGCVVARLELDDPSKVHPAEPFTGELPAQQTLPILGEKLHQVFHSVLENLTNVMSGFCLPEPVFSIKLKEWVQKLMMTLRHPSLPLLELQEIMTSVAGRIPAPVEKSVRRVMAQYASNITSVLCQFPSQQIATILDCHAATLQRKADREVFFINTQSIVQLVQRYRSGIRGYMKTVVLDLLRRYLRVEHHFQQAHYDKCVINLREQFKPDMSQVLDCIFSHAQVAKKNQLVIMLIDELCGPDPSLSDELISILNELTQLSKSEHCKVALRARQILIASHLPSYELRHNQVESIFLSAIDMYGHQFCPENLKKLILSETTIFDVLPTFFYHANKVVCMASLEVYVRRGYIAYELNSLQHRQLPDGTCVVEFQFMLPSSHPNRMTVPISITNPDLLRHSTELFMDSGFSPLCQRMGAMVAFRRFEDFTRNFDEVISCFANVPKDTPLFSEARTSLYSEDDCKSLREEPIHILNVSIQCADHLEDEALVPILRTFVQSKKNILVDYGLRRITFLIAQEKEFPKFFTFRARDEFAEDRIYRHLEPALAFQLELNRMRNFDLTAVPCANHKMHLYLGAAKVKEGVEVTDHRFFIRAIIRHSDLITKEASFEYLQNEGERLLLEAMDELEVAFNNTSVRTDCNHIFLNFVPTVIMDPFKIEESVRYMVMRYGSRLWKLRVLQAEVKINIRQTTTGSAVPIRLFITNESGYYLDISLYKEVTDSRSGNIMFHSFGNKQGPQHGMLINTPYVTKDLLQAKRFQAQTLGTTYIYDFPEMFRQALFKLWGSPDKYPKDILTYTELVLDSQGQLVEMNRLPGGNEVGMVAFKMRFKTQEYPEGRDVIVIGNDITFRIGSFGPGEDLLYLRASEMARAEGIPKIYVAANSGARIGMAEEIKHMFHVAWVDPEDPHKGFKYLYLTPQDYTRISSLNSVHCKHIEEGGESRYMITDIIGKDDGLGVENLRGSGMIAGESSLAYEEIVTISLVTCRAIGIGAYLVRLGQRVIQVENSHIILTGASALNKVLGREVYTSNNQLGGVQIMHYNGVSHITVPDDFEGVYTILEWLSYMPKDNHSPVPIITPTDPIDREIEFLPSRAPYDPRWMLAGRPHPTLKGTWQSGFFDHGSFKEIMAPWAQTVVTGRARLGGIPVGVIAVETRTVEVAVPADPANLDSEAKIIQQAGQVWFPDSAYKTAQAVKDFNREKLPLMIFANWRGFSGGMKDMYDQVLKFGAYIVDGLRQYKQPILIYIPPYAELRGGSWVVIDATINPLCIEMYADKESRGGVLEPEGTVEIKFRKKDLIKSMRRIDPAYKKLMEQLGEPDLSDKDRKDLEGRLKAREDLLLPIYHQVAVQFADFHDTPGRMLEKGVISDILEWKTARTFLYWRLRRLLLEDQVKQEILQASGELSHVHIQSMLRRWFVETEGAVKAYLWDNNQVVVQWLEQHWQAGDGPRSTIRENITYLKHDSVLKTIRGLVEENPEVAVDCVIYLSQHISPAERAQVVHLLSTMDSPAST

Row | IC50 [nM] | Structure (SMILES)
1 | 102 | CCCN(C)c1nccc(N2CC[C@@H](Oc3ccc([C@H](C)NC(C)=O)cc3)C2)n1 [Example 8.6]
2 | 49 | C[C@H](NC(=O)C(F)F)c1ccc(OC2CCN(c3ccnc(N(C)CC(F)F)n3)C2)cc1 (stereo partly drawn) [Example 5.2]
3 | 884 | CC(=O)N[C@@H](C)c1ccc(O[C@@H]2CCN(c3ccnc(OC4CCC4)n3)C2)cc1 [Example 7.7]
4 | 392 | CCCOc1ncnc(N2CC[C@@H](Oc3ccc([C@H](C)NC(C)=O)cc3)C2)c1OC [Example 7.51]
5 | 413 | CCCNc1ncnc(N2CC[C@@H](Oc3ccc([C@H](C)NC(C)=O)cc3)C2)c1F [Example 8.120]
6 | 452 | COc1cccc(N(C)c2nccc(N3CC[C@@H](Oc4ccc([C@H](C)NC(C)=O)cc4)C3)n2)c1 [Example 8.39]
7 | 49 | CC(=O)N[C@@H](C)c1ccc(O[C@@H]2CCN(c3ncnc(N4CCC(C)C4)c3F)C2)cc1 (stereo partly drawn) [Example 8.139]
8 | 65 | COCCN(C)c1ncc(F)c(N2CC[C@@H](Oc3ccc([C@H](C)NC(C)=O)cc3)C2)n1 [Example 8.66]
9 | 222 | CC(=O)N[C@@H](C)c1ccc(O[C@@H]2CCN(c3nc(N4CCC(C)(C)C4)ncc3Cl)C2)cc1 [Example 8.191]
10 | 286 | CCCNc1ncnc(N2CC[C@@H](Oc3ccc([C@H](C)NC(=O)c4sc(NC(=O)CC)nc4C)cc3)C2)c1Cl [Example 8.312]
11 | 59 | CCN(CC)c1ncnc(N2CC[C@@H](Oc3ccc([C@H](C)NC(C)=O)cc3)C2)c1Cl [Example 8.104]
12 | 86 | CC(=O)N[C@@H](C)c1ccc(O[C@@H]2CCN(c3ncnc(OCC(C)(F)F)c3F)C2)cc1 [Example 7.33]
13 | 220 | CC(=O)N[C@@H](C)c1ccc(O[C@@H]2CCN(c3nc(N4CCC(F)(F)CC4)ncc3Cl)C2)cc1 [Example 8.187]
14 | 613 | CC(=O)N[C@@H](C)c1ccc(O[C@@H]2CCN(c3nc(N4C[C@@H]5C[C@H]4CO5)ncc3F)C2)cc1 [Example 8.155]
15 | 306 | CC(=O)N[C@@H](C)c1ccc(O[C@@H]2CCN(c3ncnc(NCC4CCCO4)c3Cl)C2)cc1 (stereo partly drawn) [Example 8.313]
16 | 115 | CC(=O)Nc1nc(C)c(C(=O)N[C@@H](C)c2ccc(OC3CCN(c4ccnc(N(C)CC(F)F)n4)C3)cc2)s1 (stereo partly drawn) [Example 2.10]
17 | 535 | C[C@H](NC(=O)c1ccns1)c1ccc(OC2CCN(c3ccnc(N4CCOCC4)n3)C2)cc1 (stereo partly drawn) [Example 2.5]

Row | IC50 [nM] | Structure (SMILES)
18 | 131 | CC(=O)N[C@@H](C)c1ccc(O[C@@H]2CCN(c3ncnc(N(C)C(C)C)c3F)C2)cc1 [Example 8.135]
19 | 220 | CC(=O)N[C@@H](C)c1ccc(O[C@@H]2CCN(c3nc(N4CC[C@H](F)C4)ncc3F)C2)cc1 [Example 8.184]
20 | 202 | CCCNc1ncc(F)c(N2CC[C@@H](Oc3ccc([C@H](C)NC(C)=O)cc3)C2)n1 [Example 8.302]
21 | 130 | CC(=O)N[C@@H](C)c1ccc(O[C@@H]2CCN(c3nc(N4CC(F)(F)C4)ncc3F)C2)cc1 [Example 8.67]
22 | 75 | CCN(C)c1nccc(N2CCC(Oc3ccc([C@H](C)NC(=O)OC)cc3)C2)n1 (stereo partly drawn) [Example 4.4]
23 | 1060 | CC(=O)N[C@@H](C)c1ccc(O[C@@H]2CCN(c3nc(N(C)C4CCCC4)ncc3C#N)C2)cc1 [Example 8.33]
24 | 295 | C[C@H](NC(=O)C1CC1)c1ccc(O[C@@H]2CCN(c3nc(N4CCOCC4)ncc3F)C2)cc1 [Example 10.5]
25 | 964 | CC(=O)N[C@@H](C)c1ccc(OC2CCN(c3cnc(OCC4CC4)nc3)C2)cc1 (stereo partly drawn) [Example 1.3]
26 | 148 | CCOc1ncnc(N2CC[C@@H](Oc3ccc([C@H](C)NC(C)=O)cc3)C2)c1F [Example 7.26]
27 | 461 | CC(=O)N[C@@H](C)c1ccc(O[C@@H]2CCN(c3nc(N(C)CCC#N)ncc3Cl)C2)cc1 [Example 8.131]
28 | 60 | CC(=O)N[C@@H](C)c1ccc(O[C@@H]2CCN(c3ncnc(N(C)C4CCC4)c3F)C2)cc1 [Example 8.232]
29 | 151 | CC(=O)N[C@@H](C)c1ccc(O[C@@H]2CCN(c3ncnc(N(C)CCC(F)(F)F)c3F)C2)cc1 [Example 8.159]
30 | 710 | CC(=O)N[C@@H](C)c1ccc(O[C@@H]2CCN(c3ccnc(N(C)C)n3)C2)cc1 [Example 8.14]
31 | 753 | CC(=O)N[C@@H](C)c1ccc(O[C@@H]2CCN(c3nc(N(C)CC(C)O)ncc3Cl)C2)cc1 (stereo partly drawn) [Example 8.185]
32 | 619 | COC[C@H]1CCCN1c1nccc(N2CC[C@@H](Oc3ccc([C@H](C)NC(C)=O)cc3)C2)n1 [Example 8.228]
33 | 1040 | CC(=O)N[C@@H](C)c1ccc(O[C@@H]2CCN(c3ccnc(N4CC(C)(C)C4)n3)C2)cc1 [Example 8.73]
34 | 174 | COCC(=O)N[C@@H]1CC[C@H](C(=O)N[C@@H](C)c2ccc(O[C@@H]3CCN(c4ncnc(OCC5CC5)c4F)C3)cc2)C1 [Example 10.2]

Continued, compound first:

Row | Structure (SMILES) | IC50 [nM]
35 | CCN(C)c1ncnc(N2CC[C@@H](Oc3ccc([C@H](C)NC(C)=O)cc3)C2)c1F [Example 8.94] | 165
36 | C[C@H](NC(=O)c1cncs1)c1ccc(O[C@@H]2CCN(c3nccc(N4CCOCC4)n3)C2)cc1 [Example 6.14] | 290
37 | COc1c(OCC2CC2)ncnc1N1CC[C@@H](Oc2ccc([C@H](C)NC(C)=O)cc2)C1 [Example 7.59] | 39
38 | CC(=O)N[C@@H](C)c1ccc(O[C@@H]2CCN(c3ncnc(NCC4CCC4)c3Cl)C2)cc1 [Example 8.311] | 62
39 | CC(=O)N[C@@H](C)c1ccc(O[C@@H]2CCN(c3ncnc(C4CC4)c3F)C2)cc1 [Example 9.5] | 1010
40 | COC(=O)N[C@@H](C)c1ccc(OC2CCN(c3ncnc(OCC(C)(C)O)c3F)C2)cc1 (stereo partly drawn) [Example 4.6] | 222
41 | CC(=O)N[C@@H](C)c1ccc(O[C@@H]2CCN(c3ncnc(N(C)CC4CCOC4)c3F)C2)cc1 (stereo partly drawn) [Example 8.122] | 547
42 | COC[C@@H](C)N(C)c1ncc(F)c(N2CC[C@@H](Oc3ccc([C@H](C)NC(C)=O)cc3)C2)n1 [Example 8.150] | 159
43 | CCNC(=O)N[C@@H](C)c1ccc(O[C@@H]2CCN(c3nc(N4CCC5(CC5)C4)ncc3F)C2)cc1 [Example 3.17] | 242
44 | CCCN(C)c1ncc(Cl)c(N2CC[C@@H](Oc3ccc([C@H](C)NC(C)=O)cc3)C2)n1 [Example 8.47] | 65
45 | CC(=O)Nc1nc(C)c(C(=O)N[C@@H](C)c2ccc(OC3CCN(c4ncnc(OCC5CC5)c4F)C3)cc2)s1 (stereo partly drawn) [Example 2.19] | 39
46 | CCCN(C)c1ncc(Br)c(N2CC[C@@H](Oc3ccc([C@H](C)NC(C)=O)cc3)C2)n1 [Example 8.62] | 184
47 | CCC(=O)Nc1nc(C)c(C(=O)N[C@@H](C)c2ccc(O[C@@H]3CCN(c4ncnc(NCC(F)F)c4Cl)C3)cc2)s1 [Example 8.315] | 552
48 | CC(=O)N[C@@H](C)c1ccc(O[C@@H]2CCN(c3cnc(NC4CCC4)nc3)C2)cc1 [Example 1.1, N—((S)-1-(4-((R)-1-(2-(cyclobutylamino)pyrimidin-5-yl)pyrrolidin-3-yloxy)phenyl)ethyl)acetamide] | 489
49 | COC(CN(C)c1nccc(N2CC[C@@H](Oc3ccc([C@H](C)NC(C)=O)cc3)C2)n1)OC [Example 8.42] | 632
50 | CC(=O)N[C@@H](C)c1ccc(O[C@@H]2CCN(c3ccnc(N4CC(F)(F)C4)n3)C2)cc1 [Example 8.45] | 192
51 | CC(=O)N[C@@H](C)c1ccc(O[C@@H]2CCN(c3ccnc(N4CC5(CCC5)C4)n3)C2)cc1 [Example 8.75] | 358
52 | CC(=O)N[C@@H](C)c1ccc(O[C@@H]2CCN(c3nc(N4CCC(CO)C4)ncc3F)C2)cc1 (stereo partly drawn) [Example 8.183] | 807

Row | Structure (SMILES) | IC50 [nM]
53 | CCN(C)c1nccc(N2CCC(Oc3ccc([C@H](C)NC(=O)c4sc(NC(=O)COC)nc4C)cc3)C2)n1 (stereo partly drawn) [Example 2.9] | 300
54 | CCN(C)c1nc(N2CC[C@@H](Oc3ccc([C@H](C)NC(C)=O)cc3)C2)ncc1F [Example 6.12] | 828
55 | CC(=O)N[C@@H](C)c1ccc(O[C@@H]2CCN(c3ncnc(N4CCOC(C(F)(F)F)C4)c3F)C2)cc1 (stereo partly drawn) [Example 8.198] | 549
56 | COC(=O)N[C@@H](C)c1ccc(OC2CCN(c3ncnc(OCC4CC4)c3F)C2)cc1 (stereo partly drawn) [Example 4.5] | 85
57 | COC1CCN(c2nccc(N3CC[C@@H](Oc4ccc([C@H](C)NC(C)=O)cc4)C3)n2)CC1 [Example 8.229] | 641
58 | C[C@H](NC(=O)c1cncs1)c1ccc(O[C@@H]2CCN(c3nc(N(C)C)ncc3F)C2)cc1 [Example 8.99] | 120
59 | COCCCN(C)c1ncc(F)c(N2CC[C@@H](Oc3ccc([C@H](C)NC(C)=O)cc3)C2)n1 [Example 8.167] | 101
60 | CC(=O)N[C@@H](C)c1ccc(O[C@@H]2CCN(c3nc(N(C)C4CCOCC4)ncc3F)C2)cc1 [Example 8.290] | 765
61 | CCN(CC)c1nc(N2CC[C@@H](Oc3ccc([C@H](C)NC(C)=O)cc3)C2)ncc1F [Example 6.13] | 510
62 | CCN(C)c1ncc(F)c(N2CC[C@@H](Oc3ccc([C@H](C)NC(C)=O)cc3)C2)n1 [Example 8.31] | 95
63 | CC(=O)N[C@@H](C)c1ccc(O[C@@H]2CCN(c3nc(N(C)CC(F)(F)F)ncc3F)C2)cc1 [Example 8.30] | 184
64 | CC(=O)N[C@@H](C)c1ccc(O[C@@H]2CCN(c3ccnc(N4CCCCC4)n3)C2)cc1 [Example 8.18] | 160
65 | CC(=O)N[C@@H](C)c1ccc(O[C@@H]2CCN(c3nc(N(C)CCO)ncc3F)C2)cc1 [Example 8.205] | 607
66 | COCCCN(C)c1nccc(N2CC[C@@H](Oc3ccc([C@H](C)NC(C)=O)cc3)C2)n1 [Example 8.242] | 459
67 | CC(=O)N[C@@H](C)c1ccc(O[C@@H]2CCN(c3nc(N4CCCC4)ncc3Br)C2)cc1 [Example 8.59] | 425
68 | C[C@H](NC(=O)C1CC1)c1ccc(O[C@@H]2CCN(c3nc(N4CCC5(CC5)C4)ncc3F)C2)cc1 [Example 10.4] | 120
69 | CC(=O)N[C@@H](C)c1ccc(O[C@@H]2CCN(c3nc(N4CCOC(C(F)(F)F)C4)ncc3Cl)C2)cc1 (stereo partly drawn) [Example 8.174] | 170
